Assay results: patent US20230061352A1, “DRUG DELIVERY DEVICE” (priority 2020, published 2023)
Entries after “also recorded” stand apart in the source; their conditions may differ.

Columns and labels:
[1] = LCMS drug levels in porcine lymph tissue from the anterior jugular chain; format: in vivo, pig; details: released from implanted device; necropsy at 0, 48, 120, 240 and 336 hrs; FIGS. 12 and 13
Excerpt: (§1) Devices produced in accordance with the methods of EXAMPLE 1 were implanted into tonsillectomized pigs.
(§2) The specific LCMS method used for detection of Bupivacaine and Lidocaine has been validated in work by Hoizey et al (2005) (Hoizey G, et al. Sensitive bioassay of bupivacaine in human plasma by liquid-chromatography-ion trap mass spectrometry. Journal of pharmaceutical and biomedical analysis. 2005; 39:587-92).
(§3) The specific LCMS method used for detection of Bupivacaine and Lidocaine has been validated in work by Hoizey et al (2005).

[2] = LCMS drug levels in porcine serum from the internal jugular vein; format: in vivo, pig; details: released from implanted device; 0, 1, 2, 4, 24, 48, 72, 120, 240, 336 hrs; FIGS. 14 and 15
Excerpt: as §1, §2, §3

[3] = Qualitative sample analysis (Q1 test) of released drug by LCMS; format: physicochemical; details: drug released from the device; chromatograms, FIGS. 7 and 8
Method: Qualitative sample analysis (or Q1 test) was performed on select samples to assure single spikes were detected at frequencies consistent with calibration curves and that no secondary spikes were detected (indicating LCMS detection of single molecules without breakdown products).

drug level detected in serum (systemic uptake) [2] [microgram per ml] | Structure (SMILES) | drug level detected in locoregional (lymph) tissue [1] [microgram per ml] | integrity of the released drug molecule (no breakdown products) [3]
< 4 | CCCCN1CCCCC1C(=O)Nc1c(C)cccc1C (centres unmarked) [bupivacaine] | < 4 | active form is preserved; also recorded: complete, intact bupivacaine molecule
 | CCN(CC)CC(=O)Nc1c(C)cccc1C [lignocaine] | < 5.6 | active form is preserved; also recorded: complete, intact lignocaine molecule
